In patent publication US9023876B2, “Compounds and methods for regulating integrins” (Adhaere Pharmaceuticals, Inc., priority 2010, dated 2015):

Assays:
[1] = tested on: mice; experiment: Anti-glomerular basement membrane (anti-GBM) nephritis model; format: in vivo, mouse
Text: To determine whether CD11b/CD18 agonists have any therapeutic advantages over antagonists, we performed a head-to-head comparison between a well-characterized CD11b/CD18 antagonist (anti-CD11b antibody M1/70, [82]) and LA1 using an established mouse model of kidney disease, the anti-glomerular basement membrane (anti-GBM) nephritis. This model is characterized by neutrophil infiltration that mediates urinary protein loss, including albumin. In line with an important role for CD11b in this disease, CD11b^−/− mice and anti-CD11b mAb treated rats show decreased leukocyte infiltration and a protection from proteinuria. Here, induction of disease in mice led to peak influx of neutrophils and maximal proteinuria at day 3.

[2] = tested on: Tg(mpx::eGFP) zebrafish larvae; experiment: Zebrafish tailfin injury assay; format: in vivo; details: 4 h post injury; vehicle 34.6±4.5
Description: Transgenic Tg(mpx::eGFP) were maintained according to standard protocols. Tailfin injury in three days post fertilization (dpf) larvae was performed as described. Larvae were anesthetized by immersion in E3 with […] tricane, and tail was completely transected with a sterile microdissection scalpel in accordance with the approved protocols and were recovered for the indicated time points. Zebrafish larvae (3 dpf) were treated with compounds as described (Ref). Briefly, small molecule compounds were administered by immersing the larvae in a solution of the compounds in E3. The final concentration of DMSO was kept at <1%. For the assessment of the inflammatory response, injured larvae were analyzed at 4 h post-injury. For the post-wash assay, uninjured larvae incubated with the compounds in E3 for 4-8 h, washed into E3 and injured. Larvae were analyzed using a Leica DMI6000B microscope and an Hamamatsu Orca-3CCD camera using Volocity. Excitation was performed using the laser at 488 nm and the images were analyzed using Volocity. The number of fluorescent neutrophils at the site of inflammation were counted by eye in a blinded fashion. […]

[3] = tested on: Fischer 344 rats; experiment: Balloon induced arterial injury in rats; format: in vivo, rat
Text: All surgeries were under isoflurane anaesthesia (Baxter, Ill., USA). Balloon injury in the right iliac artery was inflicted with a 2F Fogarty catheter (Baxter Corp., Irvine, Calif., USA) adapted to a custom angiographic kit (Boston Scientific, Scimed). An aortotomy in the abdominal aorta was made to insert a 2F Fogarty embolectomy catheter to the level of the right iliac artery. The balloon was inflated to 1.5-1.6 atmospheres and retracted to the arteriotomy site three times. The aortic excision was repaired with 8.0 sutures. The abdominal cavity was closed by planes using interrupted suture pattern. Arterial specimens were collected 3-30 days after injury and fixed in 4% formalin-PBS (Sigma-Aldrich, St. Louis, Mo.) for 5 min and analyzed by histology and immunostaining
Elastica van Gieson staining was used for histochemical analyses to evaluate neointima formation. Morphometric analyses was performed in a blinded fashion using NIH ImageJ. Immunostaining with anti-rat CD68 (1:50, AbD Serotec) for the detection of macrophages in the tissue.
Leukocyte recruitment precedes neointimal thickening and restenosis following percutaneous transluminal coronary angioplasty (PTCA). […]

[4] = tested on: WT mouse macrophages and neutrophils; experiment: Secretion of pro-inflammatory cytokines by stimulated WT mouse macrophages and neutrophils; format: cell-based; details: cells stimulated with LPS, TNFalpha or ILbeta
Text: We surmised that leukadherins may also suppress pro-inflammatory cytokine express-ion in leukocytes. […] In an experiment to test the effect of leukadherin treatment on secretion of pro-inflammatory cytokines by leukocytes, we stimulated WT mouse macrophages and neutrophils with LPS, TNFalpha or ILbeta in the absence or presence of two different concentrations of agonist LA1 and measured levels of pro-inflammatory cytokine in the cell supernatant. […] Leukadherins decrease secretion of pro-inflammatory factors, including microparticles, by beta2-integrin expressing cells. Additionally, they increase secretion of anti-inflammatory factors, such as IL-10.

[5] = tested on: WT B6 mice; experiment: Thioglycollate-induced peritonitis, WT mice; format: in vivo, mouse; details: vs vehicle
Description: Thioglycollate-induced peritonitis was performed as previously described, using 8-10 week old WT B6 and CD11b^−/− B6 mice. Leukadherin agonists were administered thirty min prior to intra peritoneal (i.p.) thioglycollate (3%) injection. LA1 and LA2 ([…] of 20 mM solution in saline) were administered intra venously (i.v.). LA3 was administered i.p. (1 mL of 20 mM solution in saline). To evaluate peritoneal neutrophil recruitment, […], the peritoneal lavage was collected and the number of emigrated neutrophils was quantified using double positive cells for GR-1 and Mac-1 staining as described.
To determine the effects of LA1-3 on inflammatory responses in vivo, we monitored their effects on neutrophil recruitment upon acute thioglycollate-induced peritonitis in mice.

O=C(O)c1ccc(-c2ccc(/C=C3\SC(=S)N(Cc4ccccc4)C3=O)o2)cc1 [LA1]
number of infiltrated neutrophils (neutrophil influx) [1]: significant and maximal decrease
proteinuria [1]: significant and maximal decrease
neutrophil accumulation in the zebrafish tailfin (number of neutrophils) [2]: 15.6±1.7
neointima to media ratio ([3]; rat arteries 21 days after balloon injury, vehicle 0.23±0.01): 0.16±0.02
number of medial macrophages (CD68) ([3]; rat arteries three days post-injury, vehicle 42.2±6.7): 17.7±3.1
secretion of inflammatory factors (IL-6, TNFa, IL-1b, IFNg, MMP-9, soluble uPAR) in supernatant [4]: significantly decreased
peritoneal neutrophil accumulation at 4 h and 12 h ([5]; TGC-induced peritonitis): significantly reduced
peritoneal neutrophils after 24 h ([5]; TGC-induced peritonitis): comparable numbers
reduction of peritoneal neutrophil accumulation ([5]; WT mice, given 30 min prior to thioglycollate, 4 h): 40%
